Assay results reported in PubChem BioAssay (NCI).
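Results reflect a 48-hour exposure of cells in 96-well plates to compound at five concentrations. The concentration for 50% growth inhibition is given as GI50. TGI: total growth inhibition.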

Experiments:
Test in all cases: DTP human tumour cell line panel, 48 h
MCF7 breast = system: MCF7 breast
BT-549 breast = system: BT-549 breast
U251 CNS = system: U251 CNS
COLO 205 colon = system: COLO 205 colon
UACC-62 melanoma = system: UACC-62 melanoma
T-47D breast = system: T-47D breast
RXF 393 renal = system: RXF 393 renal
SK-MEL-28 melanoma = system: SK-MEL-28 melanoma
HS 578T breast = system: HS 578T breast
DU-145 prostate = system: DU-145 prostate
SK-MEL-2 melanoma = system: SK-MEL-2 melanoma
RPMI-8226 leukemia = system: RPMI-8226 leukemia
MDA-MB-435 = system: MDA-MB-435
SF-539 CNS = system: SF-539 CNS
PC-3 prostate = system: PC-3 prostate
UO-31 renal = system: UO-31 renal
HCT-15 colon = system: HCT-15 colon
IGROV1 ovarian = system: IGROV1 ovarian
NCI/ADR-RES ovarian = system: NCI/ADR-RES ovarian
K-562 leukemia = system: K-562 leukemia
HL-60(TB) leukemia = system: HL-60(TB) leukemia
LOX IMVI melanoma = system: LOX IMVI melanoma
NCI-H23 lung = system: NCI-H23 lung
OVCAR-5 ovarian = system: OVCAR-5 ovarian
A549 NSCLC = system: A549 NSCLC
OVCAR-3 ovarian = system: OVCAR-3 ovarian
NCI-H460 lung = system: NCI-H460 lung
SW-620 colon = system: SW-620 colon
NCI-H226 lung = system: NCI-H226 lung

With `Cc1ccc2nc3ccccc3c(NCc3ccc(Cl)cc3)c2c1` the GI50 (MCF7 breast) was 1.94 µM, the TGI (MCF7 breast) was 8.82 µM and the GI50 (BT-549 breast) was 6.38 µM. It also gave a TGI (BT-549 breast) of 13.3 µM, a GI50 (U251 CNS) of 3.85 µM and a TGI (U251 CNS) of 11.6 µM. The GI50 (COLO 205 colon) was 1.27 µM, the TGI (COLO 205 colon) was 3.39 µM and the GI50 (UACC-62 melanoma) was 6.89 µM. It also gave a TGI (UACC-62 melanoma) of 14 µM, a GI50 (T-47D breast) of 7.03 µM and a TGI (T-47D breast) of 19.5 µM. It also gave a GI50 (RXF 393 renal) of 1.98 µM, a TGI (RXF 393 renal) of 8.08 µM and a GI50 (SK-MEL-28 melanoma) of 6.42 µM. The TGI (SK-MEL-28 melanoma) was 13.1 µM, the GI50 (HS 578T breast) was 7.88 µM and the TGI (HS 578T breast) was 20.2 µM. For the same molecule, the GI50 (DU-145 prostate) was 5.44 µM, the TGI (DU-145 prostate) was 11.5 µM and the GI50 (SK-MEL-2 melanoma) was 8.57 µM. For the same molecule, the TGI (SK-MEL-2 melanoma) was 17.3 µM, the GI50 (RPMI-8226 leukemia) was 1.44 µM and the TGI (RPMI-8226 leukemia) was 4.1 µM. For the same molecule, the GI50 (MDA-MB-435) was 6.49 µM, the TGI (MDA-MB-435) was 12.9 µM and the GI50 (SF-539 CNS) was 5.55 µM. For the same molecule, the TGI (SF-539 CNS) was 12.1 µM, the GI50 (PC-3 prostate) was 2.19 µM and the TGI (PC-3 prostate) was 8.9 µM. For the same molecule, the GI50 (UO-31 renal) was 1.53 µM, the TGI (UO-31 renal) was 8.25 µM and the GI50 (HCT-15 colon) was 2.52 µM. The TGI (HCT-15 colon) was 8.73 µM, the GI50 (IGROV1 ovarian) was 2.95 µM and the TGI (IGROV1 ovarian) was 10.2 µM. It also gave a GI50 (NCI/ADR-RES ovarian) of 4.72 µM, a TGI (NCI/ADR-RES ovarian) of 12.4 µM and a GI50 (K-562 leukemia) of 1.51 µM. For the same molecule, the TGI (K-562 leukemia) was 5.28 µM, the GI50 (HL-60(TB) leukemia) was 5.28 µM and the TGI (HL-60(TB) leukemia) was 13.5 µM. The GI50 (LOX IMVI melanoma) was 2.07 µM, the TGI (LOX IMVI melanoma) was 7.46 µM and the GI50 (NCI-H23 lung) was 5.55 µM. It also gave a TGI (NCI-H23 lung) of 12 µM, a GI50 (OVCAR-5 ovarian) of 4.67 µM and a TGI (OVCAR-5 ovarian) of 11.1 µM. It also gave a GI50 (A549 NSCLC) of 3.93 µM, a TGI (A549 NSCLC) of 12.7 µM and a GI50 (OVCAR-3 ovarian) of 6.31 µM. For the same molecule, the TGI (OVCAR-3 ovarian) was 13 µM, the GI50 (NCI-H460 lung) was 4.02 µM and the TGI (NCI-H460 lung) was 11.1 µM. For the same molecule, the GI50 (SW-620 colon) was 2.83 µM, the TGI (SW-620 colon) was 9.42 µM and the GI50 (NCI-H226 lung) was 6.77 µM. It also gave a TGI (NCI-H226 lung) of 17 µM.
